We go through 17 compounds from patent US12310975B2, “Modulators of BCL6 proteolysis and associated methods of use” (Arvinas Operations, Inc., priority 2019, dated 2025).

The assay concerns the target BCL6 (Homo sapiens (Human), UniProt P41182). In words: Immunofluorescence high content imaging of BCL6 degradation in T47D cells. As to conditions: for Dmax: T47D. It is filed as cell-based. In short, it runs like this:
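BCL6 loss was quantified by high-content imaging (10×, 4 fields/well) after PFA fixation and anti-BCL6/Alexa-488 staining with Hoechst nuclear and CellMask counterstains. Compounds were applied for 3 days to T47D breast cancer cells in RPMI-10% FBS, 11 points, 3-fold steps, top 0.1 or 1 μM.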

For orientation: IC50 means the concentration that gives 50% inhibition. The low end stands for greater potency, the high end for weaker potency. As usually defined, the Dmax is the largest share of the target that was removed. Lower therefore signals shallow degradation. As for `CNC(=O)COc1cc2cc(Nc3nc(N4CCC(OC5CCN(c6cccc7c6C(=O)N(C6CCC(=O)NC6=O)C7=O)CC5)CC4)ncc3Cl)ccc2n(C(C)C)c1=O` (stereo not shown) [compound 293, 2-{[6-({5-chloro-2-[4-({1-[2-(2,6-dioxopiperidin-3-yl)-1,3-dioxo-2,3-dihydro-1H-isoindol-4-yl]piperidin-4-yl}oxy)piperidin-1-yl]pyrimidin-4-yl}amino)-2-oxo-1-(propan-2-yl)-1,2-dihydroquinolin-3-yl]oxy}-N-methylacetamide], the IC50 fell in the range of 10 to 50 nM and the Dmax is 50 to 70%.

`CCn1c(=O)c(OCC(=O)NC)cc2cc(Nc3nc(N4CCO[C@H](COc5ccc6c(c5)C(=O)N(C5CCC(=O)NC5=O)C6=O)C4)ncc3Cl)ccc21` (stereo partly drawn) [compound 294, 2-{[6-({5-chloro-2-[(2S)-2-({[2-(2,6-dioxopiperidin-3-yl)-1,3-dioxo-2,3-dihydro-1H-isoindol-5-yl]oxy}methyl)morpholin-4-yl]pyrimidin-4-yl}amino)-1-ethyl-2-oxo-1,2-dihydroquinolin-3-yl]oxy}-N-methylacetamide] showed a half-maximal inhibitory concentration (IC50) of 50 to 100 nM and a Dmax of less than 50%.

`CCn1c(=O)c(OCC(=O)NC)cc2cc(Nc3nc(N4CCN(CC5CCN(c6cccc(C(=O)NC7CCC(=O)NC7=O)c6F)CC5)CC4)ncc3Cl)ccc21` (stereo not shown) [compound 295, 3-[4-({4-[5-chloro-4-({1-ethyl-3-[(methylcarbamoyl)methoxy]-2-oxo-1,2-dihydroquinolin-6-yl}amino)pyrimidin-2-yl]piperazin-1-yl}methyl)piperidin-1-yl]-N-(2,6-dioxopiperidin-3-yl)-2-fluorobenzamide]: the IC50 is less than 10 nM and the Dmax lay within 50 to 70%.

For the compound `CNC(=O)COc1cc2cc(Nc3nc(N4CCN(CC5CCN(c6cccc(C(=O)NC7CCC(=O)NC7=O)c6F)CC5)CC4)ncc3Cl)ccc2n(C(C)C)c1=O` (stereo not shown) [compound 296, 3-[4-({4-[5-chloro-4-({3-[(methylcarbamoyl)methoxy]-2-oxo-1-(propan-2-yl)-1,2-dihydroquinolin-6-yl}amino)pyrimidin-2-yl]piperazin-1-yl}methyl)piperidin-1-yl]-N-(2,6-dioxopiperidin-3-yl)-2-fluorobenzamide], the IC50 is less than 10 nM and the Dmax was no less than 70%.

Take `CNC(=O)COc1cc2cc(Nc3nc(N4CCN(CC5CCN(c6ccc7c(c6)C(=O)N(C6CCC(=O)NC6=O)C7=O)CC5)CC4)c(C#N)cc3Cl)ccc2n(C)c1=O` (stereo not shown) [compound 297, 2-{[6-({3-chloro-5-cyano-6-[4-({1-[2-(2,6-dioxopiperidin-3-yl)-1,3-dioxo-2,3-dihydro-1H-isoindol-5-yl]piperidin-4-yl}methyl)piperazin-1-yl]pyridin-2-yl}amino)-1-methyl-2-oxo-1,2-dihydroquinolin-3-yl]oxy}-N-methylacetamide]: the IC50 is less than 10 nM and the Dmax is less than 50%.

Take `CCn1c(=O)c(OCC(=O)NC)cc2cc(Nc3nc(N4CCC(CN5CC6(C5)CN(c5ccc7c(c5)C(=O)N(C5CCC(=O)NC5=O)C7=O)C6)CC4)ncc3Cl)ccc21` (stereo not shown) [compound 298, 2-{[6-({5-chloro-2-[4-({6-[2-(2,6-dioxopiperidin-3-yl)-1,3-dioxo-2,3-dihydro-1H-isoindol-5-yl]-2,6-diazaspiro[3.3]heptan-2-yl}methyl)piperidin-1-yl]pyrimidin-4-yl}amino)-1-ethyl-2-oxo-1,2-dihydroquinolin-3-yl]oxy}-N-methylacetamide]: the IC50 is less than 10 nM and the Dmax was in the range of 50 to 70%.

The compound `CNC(=O)COc1cc2cc(Nc3nc(N4CCN(C(C)(C)C5CCN(c6ccc7c(c6)C(=O)N(C6CCC(=O)NC6=O)C7=O)CC5)CC4)ncc3Cl)ccc2n(C(C)C)c1=O` (stereo not shown) [compound 299, 2-{[6-({5-chloro-2-[4-(2-{1-[2-(2,6-dioxopiperidin-3-yl)-1,3-dioxo-2,3-dihydro-1H-isoindol-5-yl]piperidin-4-yl}propan-2-yl)piperazin-1-yl]pyrimidin-4-yl}amino)-2-oxo-1-(propan-2-yl)-1,2-dihydroquinolin-3-yl]oxy}-N-methylacetamide] registered an IC50 of 10 to 50 nM and a Dmax of no less than 70%.

Regarding `CCn1c(=O)c(OCC(=O)NC)cc2cc(Nc3cc(N4CCN(C(C)(C)C5CCN(c6ccc7c(c6)C(=O)N(C6CCC(=O)NC6=O)C7=O)CC5)CC4)ncc3Cl)ccc21` (stereo not shown) [compound 300, 2-{[6-({5-chloro-2-[4-(2-{1-[2-(2,6-dioxopiperidin-3-yl)-1,3-dioxo-2,3-dihydro-1H-isoindol-5-yl]piperidin-4-yl}propan-2-yl)piperazin-1-yl]pyridin-4-yl}amino)-1-ethyl-2-oxo-1,2-dihydroquinolin-3-yl]oxy}-N-methylacetamide], the IC50 is less than 10 nM and the Dmax is 50 to 70%.

In turn, `CCn1c(=O)c(OCC(=O)NC)cc2cc(Nc3nc(N4CCN(CC5CN(C6CN(c7ccc8c(c7)C(=O)N(C7CCC(=O)NC7=O)C8=O)C6)C5)CC4)ncc3Cl)ccc21` (stereo not shown) [compound 302, 2-{[6-({5-chloro-2-[4-({1′-[2-(2,6-dioxopiperidin-3-yl)-1,3-dioxo-2,3-dihydro-1H-isoindol-5-yl]-[1,3′-biazetidin]-3-yl}methyl)piperazin-1-yl]pyrimidin-4-yl}amino)-1-ethyl-2-oxo-1,2-dihydroquinolin-3-yl]oxy}-N-methylacetamide] showed an IC50 of 10 to 50 nM and a Dmax of less than 50%.

Take `CCn1c(=O)c(OCC(=O)NC)cc2cc(Nc3nc(N4CCC(OC5CC6(C5)CN(c5ccc7c(c5)C(=O)N(C5CCC(=O)NC5=O)C7=O)C6)CC4)ncc3Cl)ccc21` (stereo not shown) [compound 303, 2-{[6-({5-chloro-2-[4-({2-[2-(2,6-dioxopiperidin-3-yl)-1,3-dioxo-2,3-dihydro-1H-isoindol-5-yl]-2-azaspiro[3.3]heptan-6-yl}oxy)piperidin-1-yl]pyrimidin-4-yl}amino)-1-ethyl-2-oxo-1,2-dihydroquinolin-3-yl]oxy}-N-methylacetamide]: the IC50 is less than 10 nM and the Dmax was 50 to 70%.

In the case of `CCn1c(=O)c(OCC(=O)NC)cc2cc(Nc3nc(N4CCN(C(C)(C)C5CCN(c6ccc7c(c6)C(=O)N(C6CCC(=O)NC6=O)C7=O)CC5)CC4)ncc3Cl)ccc21` (stereo not shown) [compound 304, 2-{[6-({5-chloro-2-[4-(2-{1-[2-(2,6-dioxopiperidin-3-yl)-1,3-dioxo-2,3-dihydro-1H-isoindol-5-yl]piperidin-4-yl}propan-2-yl)piperazin-1-yl]pyrimidin-4-yl}amino)-1-ethyl-2-oxo-1,2-dihydroquinolin-3-yl]oxy}-N-methylacetamide], the IC50 was less than 10 nM and the Dmax is no less than 70%.

`CNC(=O)COc1cc2cc(Nc3nc(N4CCC(CN5CC6(C5)CN(c5ccc7c(c5)C(=O)N(C5CCC(=O)NC5=O)C7=O)C6)CC4)ncc3Cl)ccc2n(C(C)C)c1=O` (stereo not shown) [compound 306, 2-{[6-({5-chloro-2-[4-({6-[2-(2,6-dioxopiperidin-3-yl)-1,3-dioxo-2,3-dihydro-1H-isoindol-5-yl]-2,6-diazaspiro[3.3]heptan-2-yl}methyl)piperidin-1-yl]pyrimidin-4-yl}amino)-2-oxo-1-(propan-2-yl)-1,2-dihydroquinolin-3-yl]oxy}-N-methylacetamide] displayed an IC50 of less than 10 nM and a Dmax of no less than 70%.

The compound `CNC(=O)COc1cc2cc(Nc3nc(N4CCN(C(C)(C)C5CCN(c6cccc7c6C(=O)N(C6CCC(=O)NC6=O)C7=O)CC5)CC4)ncc3Cl)ccc2n(C(C)C)c1=O` (stereo not shown) [compound 307, 2-{[6-({5-chloro-2-[4-(2-{1-[2-(2,6-dioxopiperidin-3-yl)-1,3-dioxo-2,3-dihydro-1H-isoindol-4-yl]piperidin-4-yl}propan-2-yl)piperazin-1-yl]pyrimidin-4-yl}amino)-2-oxo-1-(propan-2-yl)-1,2-dihydroquinolin-3-yl]oxy}-N-methylacetamide] had an IC50 of less than 10 nM and a Dmax of 50 to 70%.

Compound `CNC(=O)COc1cc2cc(Nc3cc(N4CCN(C(C)(C)C5CCN(c6ccc7c(c6)C(=O)N(C6CCC(=O)NC6=O)C7=O)CC5)CC4)ncc3Cl)ccc2n(C(C)C)c1=O` (stereo not shown) [compound 308, 2-{[6-({5-chloro-2-[4-(2-{1-[2-(2,6-dioxopiperidin-3-yl)-1,3-dioxo-2,3-dihydro-1H-isoindol-5-yl]piperidin-4-yl}propan-2-yl)piperazin-1-yl]pyridin-4-yl}amino)-2-oxo-1-(propan-2-yl)-1,2-dihydroquinolin-3-yl]oxy}-N-methylacetamide] displayed an IC50 of 10 to 50 nM and a Dmax of less than 50%.

For the compound `CCn1c(=O)c(OCC(=O)NC)cc2cc(Nc3nc(N4CCC(OC5CN(CC6CN(c7ccc8c(c7)C(=O)N(C7CCC(=O)NC7=O)C8=O)C6)C5)CC4)ncc3Cl)ccc21` (stereo not shown) [compound 309, 2-[(6-{[5-chloro-2-(4-{[1-({1-[2-(2,6-dioxopiperidin-3-yl)-1,3-dioxo-2,3-dihydro-1H-isoindol-5-yl]azetidin-3-yl}methyl)azetidin-3-yl]oxy}piperidin-1-yl)pyrimidin-4-yl]amino}-1-ethyl-2-oxo-1,2-dihydroquinolin-3-yl)oxy]-N-methylacetamide], the IC50 lay within 10 to 50 nM and the Dmax was 50 to 70%.

In turn, `CCn1c(=O)c(OCC(=O)NC)cc2cc(Nc3nc(N4CCN(CC5CCN(c6cccc7c6C(=O)N(C6CCC(=O)NC6=O)C7=O)CC5)CC4)ncc3Cl)ccc21` (stereo not shown) [compound 310, 2-{[6-({5-chloro-2-[4-({1-[2-(2,6-dioxopiperidin-3-yl)-1,3-dioxo-2,3-dihydro-1H-isoindol-4-yl]piperidin-4-yl}methyl)piperazin-1-yl]pyrimidin-4-yl}amino)-1-ethyl-2-oxo-1,2-dihydroquinolin-3-yl]oxy}-N-methylacetamide] displayed an IC50 of less than 10 nM and a maximal degradation (Dmax) of 50 to 70%.

Compound `CNC(=O)COc1cc2cc(Nc3nc(N4CCN(CC5CCN(c6cccc7c6C(=O)N(C6CCC(=O)NC6=O)C7=O)CC5)CC4)ncc3Cl)ccc2n(C(C)C)c1=O` (stereo not shown) [compound 311, 2-{[6-({5-chloro-2-[4-({1-[2-(2,6-dioxopiperidin-3-yl)-1,3-dioxo-2,3-dihydro-1H-isoindol-4-yl]piperidin-4-yl}methyl)piperazin-1-yl]pyrimidin-4-yl}amino)-2-oxo-1-(propan-2-yl)-1,2-dihydroquinolin-3-yl]oxy}-N-methylacetamide] had an IC50 of less than 10 nM and a Dmax of no less than 70%.
